Counter-ions that a name gives are not always drawn.

For the molecule `COc1ccc(-c2[nH]nc3c2C(=O)c2c(NC(=O)CN4CCN(CCO)CC4)cccc2-3)cc1` [Example XXVIII, 3-(4-methoxyphenyl)-5-(4-(2-hydroxyethyl)piperazinoacetamido)indeno[1,2-c]pyrazol-4-one], the melting point (usually the temperature of the solid-liquid transition) is over 300 °C.

In turn, `COC[C@H]1CCCN1NC(=O)Nc1cccc2c1C(=O)c1c-2n[nH]c1-c1ccc(C(=O)N2CCNCC2)s1` (as salt: TFA) [Example CCIV, 3-(5-piperazinocarbonyl-2-thienyl)-5-(2(R)-(methoxymethyl)pyrrolidinocarbamoylamino)indeno[1,2-c]pyrazol-4-one] showed a melting point of over 300 °C. Molecule `CC(C)c1[nH]nc2c1C(=O)c1c(NC(=O)NN3CCN(C)CC3)cccc1-2` [Example CXXI, 3-(i-propyl)-5-((4-methylpiperazino)carbamoylamino)indeno [1,2-c]pyrazol-4-one] yielded a melting point of 231 °C.

`CC(=O)Nc1cccc2c1C(=O)c1c-2n[nH]c1-c1ccncc1` [Example XLIX, 3-(4-pyridyl)-5-(acetamido)indeno [1,2-c]pyrazol-4-one] registered a melting point of over 300 °C.

`COc1ccc(-c2[nH]nc3c2C(=O)c2c(NC(=O)Cc4ccc(Cl)cc4)cccc2-3)cc1` [Example X, 3-(4-methoxyphenyl)-5-((4-chlorophenyl)acetamido)indeno[1,2-c]pyrazol-4-one]: the melting point is 238 °C.

In turn, `CN(C)C1CCN(C(=O)c2ccc(-c3[nH]nc4c3C(=O)c3c(NC(=O)NN5CCOCC5)cccc3-4)s2)CC1` (as salt: TFA) [Example CLVIII, 3-(5-(4-(N,N-dimethylamino)piperidinocarbonyl)-2-thienyl)-5-(morpholinocarbamoylamino)indeno[1,2-c]pyrazol-4-one] displayed a melting point of 185 °C. On to `Nc1ccc(C(=O)N2CCC(c3[nH]nc4c3C(=O)c3c(NC(=O)NN5CCOCC5)cccc3-4)CC2)cc1` (as salt: TFA) [Example CCXCVII, 3-(1-(4-aminophenylcarbonyl)piperidin-4-yl)-5-(morpholinocarbamoylamino)indeno[1,2-c]pyrazol-4-one], for which the melting point was determined as 198 °C. `N[C@H]1CC[C@@H](C(=O)N2CCC(c3[nH]nc4c3C(=O)c3c(NC(=O)NN5CCOCC5)cccc3-4)CC2)CC1` (as salt: TFA) [Example CCLXXXII, 3-(1-(cis-4-aminocyclohexylcarbonyl)piperidin-4-yl)-5-(morpholinocarbamoylamino)indeno[1,2-c]pyrazol-4-one] had a melting point of 212 °C. `O=C(Nc1cccc2c1C(=O)c1c-2n[nH]c1-c1ccc(N2CCNCC2)cc1)NN1CCOCC1` (as salt: TFA) [Example CCXI, 3-(4-piperazinophenyl)-5-(morpholinocarbamoylamino)indeno[1,2-c]pyrazol-4-one] had a melting point of 263 °C. Take `COc1ccc(-c2[nH]nc3c2C(=O)c2c(NC(=O)Cc4ccccc4Cl)cccc2-3)cc1` [Example XXII, 3-(4-methoxyphenyl)-5-((2-chlorophenyl)acetamido)indeno[1,2-c]pyrazol-4-one]: the melting point worked out at 300 °C.

For `CN(C)[C@H]1CCN(C(=O)c2ccc(-c3[nH]nc4c3C(=O)c3c(NC(=O)NN5CCOCC5)cccc3-4)s2)C1` (as salt: TFA) [Example CLXXXII, 3-(5-(3(S)-(N,N-dimethylamino)pyrrolidinocarbonyl)-2-thienyl)-5-(morpholinocarbamoylamino)indeno[1,2-c]pyrazol-4-one], the melting point stood at 264 °C. Molecule `COc1ccc(-c2[nH]nc3c2C(=O)c2c(NC(=O)C4CCCC4)cccc2-3)cc1` [Example VI, 3-(4-methoxyphenyl)-5-(cyclopentanecarboxamido)indeno[1,2-c]pyrazol-4-one] yielded a melting point of 267 °C. With `COc1ccc(-c2[nH]nc3c2C(=O)c2c(NC(=O)C4CCC4)cccc2-3)cc1` [Example VII, 3-(4-methoxyphenyl)-5-(cyclobutanecarboxamido)indeno[1,2-c]pyrazol-4-one], the melting point is 297 °C. In turn, `CC(C)(C)OC(=O)N1CCN(C(=O)c2ccc(-c3[nH]nc4c3C(=O)c3c(NC(=O)NN5CCOCC5)cccc3-4)s2)CC1` (as salt: TFA) [Example CLIV, 3-(5-(4-(t-butoxycarbonyl)piperazinocarbonyl)-2-thienyl)-5-(morpholinocarbamoylamino)indeno[1,2-c]pyrazol-4-one] yielded a melting point of 225 °C.

Turning to `COc1ccc(-c2[nH]nc3c2C(=O)c2c(NC(=O)CN4CCC(C(N)=O)CC4)cccc2-3)cc1` [Example LXXII, 3-(4-methoxyphenyl)-5-(4-carbamoylpiperidinoacetamido)indeno[1,2-c]pyrazol-4-one], the melting point is over 300 °C. The same measure for `O=CNc1cccc2c1C(=O)c1c-2n[nH]c1-c1ccncc1` [Example L, 3-(4-pyridyl)-5-(formamido)indeno [1,2-c]pyrazol-4-one]: over 300 °C; for `O=C(Nc1cccc2c1C(=O)c1c-2n[nH]c1-c1ccc(C(=O)N2CCN(c3ccccn3)CC2)s1)NN1CCOCC1` (as salt: TFA) [Example CLV, 3-(5-(4-(2-pyridyl)piperazinocarbonyl)-2-thienyl)-5-(morpholinocarbamoylamino)indeno[1,2-c]pyrazol-4-one]: 202 °C.

`CO[C@H]1CC[C@H](C(=O)N2CCC(c3[nH]nc4c3C(=O)c3c(NC(=O)NN5CCOCC5)cccc3-4)CC2)CC1` (as salt: TFA) [Example CCXCII, 3-(1-(trans-4-methoxycyclohexylcarbonyl)piperidin-4-yl)-5-(morpholinocarbamoylamino)indeno[1,2-c]pyrazol-4-one] had a melting point of 246 °C. `CCCc1[nH]nc2c1C(=O)c1c(NC(N)=O)cccc1-2` [Example XCII, 3-(n-propyl)-5-(carbamoylamino)indeno[1,2-c]pyrazol-4-one]: the melting point was 187 °C. The same measure for `COc1ccc(-c2[nH]nc3c2C(=O)c2c(NC(=O)CN4CCC(O)CC4)cccc2-3)cc1` [Example LXXIII, 3-(4-methoxyphenyl)-5-(4-hydroxypiperidinoacetamido)indeno[1,2-c]pyrazol-4-one]: over 300 °C. The molecule `CCc1[nH]nc2c1C(=O)c1c(NC(N)=O)cccc1-2` [Example XCI, 3-(ethyl)-5-(carbamoylamino)indeno[1,2-c]pyrazol-4-one] had a melting point of over 250 °C. The same measure for `CC(C)(C)OC(=O)N[C@H]1CC[C@H](C(=O)N2CCC(c3[nH]nc4c3C(=O)c3c(NC(=O)NN5CCOCC5)cccc3-4)CC2)CC1` [Example CCLXXXVI, 3-(1-(trans-4-(t-butoxycarbonylamino)cyclohexylcarbonyl)piperidin-4-yl)-5-(morpholinocarbamoylamino)indeno[1,2-c]pyrazol-4-one]: 178 °C; for `COc1ccc(-c2[nH]nc3c2C(=O)c2c(NC(=S)NN4CCN(C)CC4)cccc2-3)cc1` [Example LXXXVI, 3-(4-methoxyphenyl)-5-((4-methylpiperazino)thionocarbamoylamino)indeno[1,2-c]pyrazol-4-one]: over 300 °C; for `CCN(CC)c1ccc(NC(=O)c2ccc(-c3[nH]nc4c3C(=O)c3c(NC(=O)NN5CCOCC5)cccc3-4)s2)cc1` (as salt: TFA) [Example CXCVIII, 3-(5-(4-(diethylamino)phenylaminocarbonyl)-2-thienyl)-5-(morpholinocarbamoylamino)indeno[1,2-c]pyrazol-4-one]: 198 °C. Regarding `CN(C)NC(=O)Nc1cccc2c1C(=O)c1c-2n[nH]c1-c1ccc(N2CCNCC2)cc1` (as salt: TFA) [Example CCXXI, 3-(4-piperazinophenyl)-5-((N,N-dimethylamino)carbamoylamino)indeno[1,2-c]pyrazol-4-one], the melting point worked out at 238 °C. `NC1CCCC(NC(=O)c2ccc(-c3[nH]nc4c3C(=O)c3c(NC(=O)NN5CCOCC5)cccc3-4)s2)C1` (centres unmarked) (as salt: TFA) [Example CLXX, 3-(5-((3-aminocyclohexyl)aminocarbonyl)-2-thienyl)-5-(morpholinocarbamoylamino)indeno[1,2-c]pyrazol-4-one]: the melting point was over 300 °C. The same measure for `CN(C)C1CCN(C(=O)N2CCC(c3[nH]nc4c3C(=O)c3c(NC(=O)NN5CCOCC5)cccc3-4)CC2)CC1` (as salt: TFA) [Example CCLXIX, 3-(1-(4-(dimethylamino)piperidinocarbonyl)piperidin-4-yl)-5-(morpholinocarbamoylamino)indeno[1,2-c]pyrazol-4-one]: 172 °C. The molecule `CC(C)N1CCN(c2ccc(-c3[nH]nc4c3C(=O)c3c(NC(=O)NN5CCOCC5)cccc3-4)cc2)CC1` (as salt: TFA) [Example CCXX, 3-(4-(4-isopropylpiperazino)phenyl)-5-(morpholinocarbamoylamino)indeno[1,2-c]pyrazol-4-one] had a melting point of 253 °C. The value for `O=C(Nc1cccc2c1C(=O)c1c-2n[nH]c1-c1ccc(C(=O)N2CCN(CCO)CC2)s1)NN1CCOCC1` (as salt: TFA) [Example CLII, 3-(5-(4-(2-hydroxyethyl)piperazinocarbonyl)-2-thienyl)-5-(morpholinocarbamoylamino)indeno[1,2-c]pyrazol-4-one] was 186 °C. The same measure for `CCOC(=O)c1ccc(-c2[nH]nc3c2C(=O)c2c(NC(=O)NN4CCN(C)CC4)cccc2-3)s1` [Example CXXII, 3-(5-carboethoxy-2-thienyl)-5-((4-methylpiperazino)carbamoylamino)indeno [1,2-c]pyrazol-4-one]: 249 °C; for `COc1ccc(-c2[nH]nc3c2C(=O)c2c(NC(=O)Cc4ccc5c(c4)OCO5)cccc2-3)cc1` (hydrate or solvate) [Example XVII, 3-(4-methoxyphenyl)-5-((3,4-methylenedioxyphenyl)acetamido)indeno[1,2-c]pyrazol-4-one]: 297 °C. The same measure for `CN(C)CCCCC(=O)N1CCC(c2[nH]nc3c2C(=O)c2c(NC(=O)NN4CCOCC4)cccc2-3)CC1` (as salt: TFA) [Example CCLXXVIII, 3-(1-(4-(dimethylamino)butylcarbonyl)piperidin-4-yl)-5-(morpholinocarbamoylamino)indeno[1,2-c]pyrazol-4-one]: 68 °C.

For the origin of these results see patent US6407103B2, “Indeno [1,2-c] pyrazol-4-ones and their uses” (Bristol-Myers Squibb Pharma Company, priority 1998, dated 2002).
